US7868026B2, “Therapeutic compounds” (Pfizer Inc., priority 2005, dated 2011)
Like-named read-outs stand apart in the source and are kept apart here.

How the values were obtained:
Type in all cases: biochemical
[1] = target: T1, CYP3A4 (Homo sapiens, UniProt P08684); test: Determination of compound Kiapp against recombinant CYP3A4 enzyme (BFC fluorescent substrate)
Procedure, shortened: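 Recombinant CYP3A4 (5.5 or 8 nM, with or without b5 depending on source) pre-incubated with inhibitor ≥30 min at room temperature in 100 mM sodium phosphate pH 7.0, 5 mM TCEP, 2% DMF. Reaction started with 200 uM NADPH and 5 uM BFC; initial fluorescence rates over 5 min fitted to Morrison tight-binding (non-partial) or Szedlacsek (partial) equations for Kiapp.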

[2] = target: T1, CYP3A4; test: Determination of IC50 against CYP3A4 by measurement of inhibition of testosterone metabolism (human liver microsomes, 6-β-OH-testosterone by LC-MS/MS); parameters: 0.1 mg/mL human liver microsomes; details: read-out: IC50 (Testo.)
Procedure, shortened: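 Human liver microsomes (0.1 mg/mL) incubated with 25 μM testosterone and 1 mM NADPH in 100 mM potassium phosphate, pH 7.4, for eight minutes. 6-β-OH-testosterone measured by LC-MS/MS in MRM mode against an internal standard and quantified from a metabolite standard curve.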

[3] = target: T1, CYP3A4; test: Determination of IC50 against CYP3A4 by measurement of inhibition of midazolam metabolism (human liver microsomes, 1-hydroxymidazolam by LC-MS/MS); parameters: 0.1 mg/mL human liver microsomes; details: 2 μM midazolam, 0.1 mg/mL human liver microsomes
Procedure, shortened: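 Human liver microsomes (0.1 mg/mL) incubated 8 min with 2 μM midazolam and 1 mM NADPH in 100 mM potassium phosphate, pH 7.4. 1-Hydroxymidazolam quantified by LC-MS/MS (MRM) as peak area ratio to internal standard against a metabolite standard curve.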

[4] = Baculo. enzyme preparation, read-out: Kiapp (BFC, Baculo.)
[5] = Super. enzyme preparation, read-out: Kiapp (BFC, Super.)

T1 sequence (P08684 whole entry): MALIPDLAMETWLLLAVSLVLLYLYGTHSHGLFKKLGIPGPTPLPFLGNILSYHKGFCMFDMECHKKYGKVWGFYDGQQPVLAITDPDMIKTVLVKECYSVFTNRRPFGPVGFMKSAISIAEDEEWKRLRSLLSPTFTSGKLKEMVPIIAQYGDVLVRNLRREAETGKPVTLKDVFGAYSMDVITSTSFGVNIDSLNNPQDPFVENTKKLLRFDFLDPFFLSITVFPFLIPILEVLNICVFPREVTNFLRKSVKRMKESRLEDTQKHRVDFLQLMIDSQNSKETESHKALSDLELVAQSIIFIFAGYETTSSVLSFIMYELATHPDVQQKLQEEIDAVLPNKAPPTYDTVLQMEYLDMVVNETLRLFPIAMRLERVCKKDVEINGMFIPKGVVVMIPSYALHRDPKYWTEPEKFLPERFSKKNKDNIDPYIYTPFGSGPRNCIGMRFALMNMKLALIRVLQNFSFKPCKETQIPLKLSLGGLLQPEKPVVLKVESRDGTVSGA

| SMILES | Ki [1, 4] | Ki [1, 5] | IC50 [2] | IC50 [3] |
| --- | --- | --- | --- | --- |
| COc1cncc(NS(=O)(=O)c2ccccc2C(=O)NCc2ccc(S(C)(=O)=O)cc2)c1 [Example 233, 2-{[(5-methoxypyridin-3-yl)amino]sulfonyl}-N-[4-(methylsulfonyl)benzyl]benzamide] | > 1000 nM | 182 nM | 195 nM | 67 nM |
| O=C(NC1CCCCC1)c1ccccc1S(=O)(=O)Nc1cccnc1 [Example 8, N-cyclohexyl-2-[(pyridin-3-ylamino)sulfonyl]benzamide] | 460 nM | 44.6 nM | 67 nM | 63 nM |
| Cc1cncc(NS(=O)(=O)c2ccccc2C(=O)NCc2ccc(F)c(C)c2)c1 [Example 156, N-(4-fluoro-3-methylbenzyl)-2-{[(5-methylpyridin-3-yl)amino]sulfonyl}benzamide] | 84 nM | 5 nM | 11 nM | 13 nM |
| CCOc1cncc(NS(=O)(=O)c2ccccc2C(=O)NCC2CC2)c1 [Example 293, N-(cyclopropylmethyl)-2-{[(5-ethoxypyridin-3-yl)amino]sulfonyl}benzamide] | 268 nM | 58.1 nM | 145 nM | 81 nM |
| COc1cncc(NS(=O)(=O)c2ccc(F)cc2C(=O)N2CCCC(C)C2)c1 (stereo not shown) [Example 267, 4-fluoro-N-(5-methoxypyridin-3-yl)-2-[(3-methylpiperidin-1-yl)carbonyl]benzenesulfonamide] | 270 nM | 43.2 nM | 216 nM | 120 nM |
| COc1cncc(NS(=O)(=O)c2ccccc2C(=O)NCc2ccc(Cl)c(Cl)c2)c1 [Example 314, N-(3,4-dichlorobenzyl)-2-{[(5-methoxypyridin-3-yl)amino]sulfonyl}benzamide] | 18.7 nM | 4.5 nM | 17 nM | 17 nM |
| O=C(NCc1ccc2c(c1)CCO2)c1ccccc1S(=O)(=O)Nc1cccnc1 [Example 82, N-(2,3-dihydro-1-benzofuran-5-ylmethyl)-2-[(pyridin-3-ylamino)sulfonyl]benzamide] | 743 nM | 20.9 nM | 25 nM | 28 nM |
| CCCCCN(C)C(=O)c1ccccc1S(=O)(=O)Nc1cncc(C)c1 [Example 341, N-methyl-2-{[(5-methylpyridin-3-yl)amino]sulfonyl}-N-pentylbenzamide] | 36.6 nM | 13.1 nM | 26 nM | 22 nM |
| Cc1cncc(NS(=O)(=O)c2ccccc2C(=O)N2CC(C)CC(C)C2)c1 (stereo not shown) [Example 333, 2-[(3,5-dimethylpiperidin-1-yl)carbonyl]-N-(5-methylpyridin-3-yl)benzenesulfonamide] | 69.2 nM | 22.9 nM | 13 nM | 24 nM |
| Cc1cncc(NS(=O)(=O)c2ccccc2C(=O)N(C)CCC(C)C)c1 [Example 348, N-methyl-N-(3-methylbutyl)-2-{[(5-methylpyridin-3-yl)amino]sulfonyl}benzamide] | 30.8 nM | 4.7 nM | 12 nM | 7 nM |
| CCCCC(CO)NC(=O)c1ccccc1S(=O)(=O)Nc1cncc(OC)c1 (stereo not shown) [Example 189, N-[1-(hydroxymethyl)pentyl]-2-{[(5-methoxypyridin-3-yl)amino]sulfonyl}benzamide] | 175 nM | 27.4 nM | 48 nM | 24 nM |
| COc1cncc(NS(=O)(=O)c2ccccc2C(=O)NCCCc2ccccc2)c1 [Example 235, 2-{[(5-methoxypyridin-3-yl)amino]sulfonyl}-N-(3-phenylpropyl)benzamide] | 107 nM | 8.7 nM | 19 nM | 10 nM |
| CCCCNC(=O)c1ccccc1S(=O)(=O)N(C)c1cccnc1 [Example 351, N-butyl-2-{[methyl(pyridin-3-yl)amino]sulfonyl}benzamide] | 456 nM | 138 nM | 110 nM | 113 nM |
